Molecular target: rat PGT (Rattus norvegicus (Rat), UniProt Q00910)
Experiment: [3H]PGE2 uptake inhibition in MDCK cells stably transfected with rat PGT (percent inhibition and IC50)
Assay type: cell-based
Details: for Inh (% of Ctl) 0.5 μM: 0.5 μM compound; for Inh (% of Ctl) 0.5 μM / Inh (% of Ctl) 5 μM / Inh (% of Ctl) 1 μM / Inh (% of Ctl) 10 μM: inhibition of [3H]PGE2 uptake; for Inh (% of Ctl) 5 μM: 5 μM compound; for Inh (% of Ctl) 1 μM: 1 μM compound; for Inh (% of Ctl) 10 μM: 10 μM compound; for IC50: [3H]PGE2 uptake, MDCK cells stably transfected with rat PGT
Description: MDCK cells stably transfected with rat PGT (Endo et al., 2002) were seeded at 15-20% confluence on 24-well plates. The day on which the cells were seeded was considered day 1. PGE2 uptake experiments were conducted on day 4. All of the PGE2 uptake experiments were conducted at room temperature. On day 4, cells were washed twice with Waymouth buffer (135 mM NaCl, 13 mM H-Hepes, 13 mM Na-Hepes, 2.5 mM CaCl2, 1.2 mM MgCl2, 0.8 mM MgSO4, 5 mM KCl, and 28 mM D-glucose). Then 200 μL of Waymouth buffer containing [^3H]PGE2 (purchased from Perkin Elmer) was added to each well. At the designed time, the uptake of [^3H]PGE2 was stopped by aspiration of uptake buffer; this was followed by immediate washing twice with 500 μL of chilled Waymouth buffer. Cells were then lysed with 100 μL lysis buffer containing 0.25% SDS and 0.05 N NaOH. 1.5 mL of scintillation solution was added to each well, and intracellular [^3H]PGE2 was counted by MicroBeta Counter.
For preliminary testing of the compounds, 20 μL of Waymouth buffer containing the compound was added to each well; this was immediately followed by the addition of 180 μL of Waymouth buffer containing [^3H]PGE2. In each well, the total volume of uptake medium was 200 μL. Organic compounds were first dissolved in EtOH and then diluted in Waymouth buffer. The percent inhibition of [^3H]PGE2 uptake by compounds was calculated as [(uptakevehicle−uptakeinhibitor)÷(uptakevehicle)]×100.
IC50 was calculated by fitting an equation of y=m1−m1*(m0/(m2+m0)).

Row | Inh (% of Ctl) 0.5 μM | Inh (% of Ctl) 5 μM | Inh (% of Ctl) 1 μM | Inh (% of Ctl) 10 μM | IC50 | SMILES
1 | 9.6 % of Ctl | 8.5 % of Ctl |  |  |  | COc1ccc(Nc2nc(NCCOCCOCCNC(=O)c3ccccc3)nc(Nc3ccccc3)n2)cc1 [compound 1]
2 | 1.6 % of Ctl | 6.5 % of Ctl |  |  |  | O=C(NCCOCCOCCNc1nc(Nc2ccccc2)nc(Nc2ccc(OCc3ccccc3)cc2)n1)c1ccccc1 [compound 2]
3 | 0.4 % of Ctl | 1.7 % of Ctl |  |  |  | O=C(NCCOCCOCCNc1nc(Cl)nc(Nc2ccc(OCc3ccccc3)cc2)n1)c1ccccc1 [compound 3]
4 | 7.0 % of Ctl | 67.6 % of Ctl | 32.4 % of Ctl | 81.5 % of Ctl | 4850 nM | O=C(NCCOCCOCCNc1nc(Nc2ccccc2)nc(Nc2ccc(O)cc2)n1)c1ccccc1 [compound 4]
5 | 6.6 % of Ctl | 9.6 % of Ctl |  |  |  | CN(C)c1nc(NCCOCCOCCNC(=O)c2ccccc2)nc(Nc2ccc(OCc3ccccc3)cc2)n1 [compound 5]
6 | 3.6 % of Ctl | 11.7 % of Ctl |  |  |  | O=C(NCCOCCOCCNc1nc(NCCO)nc(Nc2ccc(OCc3ccccc3)cc2)n1)c1ccccc1 [compound 6]
7 | 4.8 % of Ctl | 22.5 % of Ctl |  |  |  | COCCOCCOCCNc1nc(NCCOCCOCCNC(=O)c2ccccc2)nc(Nc2ccc(OCc3ccccc3)cc2)n1 [compound 7]
8 | 52.3 % of Ctl |  |  |  | 224 nM | O=C(O)C(F)(F)F.[N-]=[N+]=NCCOCCOCCNC(=O)c1ccc(Nc2nc(NCCOCCOCCNC(=O)c3ccccc3)nc(Nc3ccc(O)cc3)n2)cc1 [compound 8]
9 | 1.3 % of Ctl | 18.8 % of Ctl |  |  |  | CN(C)c1nc(NCCOCCOCCNC(=O)c2ccccc2)nc(Nc2ccc(O)cc2)n1 [compound 9]
10 | 1.4 % of Ctl | 15.0 % of Ctl |  |  |  | O=C(NCCOCCOCCNc1nc(NCCO)nc(Nc2ccc(O)cc2)n1)c1ccccc1 [compound 10]
11 | 11.4 % of Ctl | 29.9 % of Ctl |  |  |  | COCCOCCOCCNc1nc(NCCOCCOCCNC(=O)c2ccccc2)nc(Nc2ccc(O)cc2)n1 [compound 11]
12 | 2.8 % of Ctl | 4.7 % of Ctl |  |  |  | O=C(NCCOCCOCCNc1nc(O)nc(Nc2ccc(O)cc2)n1)c1ccccc1 [compound 12]
13 | 19.2 % of Ctl | 19.3 % of Ctl |  |  |  | O=C(O)c1ccc(Nc2nc(NCCOCCOCCNC(=O)c3ccccc3)nc(Nc3ccc(O)cc3)n2)cc1 [compound 13]
14 | 10.6 % of Ctl | 35.9 % of Ctl |  |  |  | CNC(=O)c1ccc(Nc2nc(NCCOCCOCCNC(=O)c3ccccc3)nc(Nc3ccc(O)cc3)n2)cc1 [compound 14]
15 | 15.0 % of Ctl | 16.6 % of Ctl |  |  |  | CN(C)C(=O)c1ccc(Nc2nc(NCCOCCOCCNC(=O)c3ccccc3)nc(Nc3ccc(O)cc3)n2)cc1 [compound 15]
16 | 11.8 % of Ctl | 44.8 % of Ctl |  |  | 9770 nM | CC(C)(C)NC(=O)c1ccc(Nc2nc(NCCOCCOCCNC(=O)c3ccccc3)nc(Nc3ccc(O)cc3)n2)cc1 [compound 16]
17 | 22.0 % of Ctl | 55.6 % of Ctl |  |  | 6570 nM | COC(=O)c1ccc(Nc2nc(NCCOCCOCCNC(=O)c3ccccc3)nc(Nc3ccc(O)cc3)n2)cc1 [compound 17]
18 | 21.1 % of Ctl | 48.9 % of Ctl |  |  |  | O=C(NCCOCCO)c1ccc(Nc2nc(NCCOCCOCCNC(=O)c3ccccc3)nc(Nc3ccc(O)cc3)n2)cc1 [compound 18]
19 | 41.3 % of Ctl | 75.0 % of Ctl |  |  |  | COCCOCCOCCNC(=O)c1ccc(Nc2nc(NCCOCCOCCNC(=O)c3ccccc3)nc(Nc3ccc(O)cc3)n2)cc1 [compound 19]
20 | 9.6 % of Ctl | 14.4 % of Ctl |  |  |  | NC(=O)c1ccc(Nc2nc(NCCOCCOCCNC(=O)c3ccccc3)nc(Nc3ccc(O)cc3)n2)cc1 [compound 20]
21 | 15.7 % of Ctl | 68.2 % of Ctl |  |  |  | O=C(NCCO)c1ccc(Nc2nc(NCCOCCOCCNC(=O)c3ccccc3)nc(Nc3ccc(O)cc3)n2)cc1 [compound 21]
22 | 62.4 % of Ctl | 88.1 % of Ctl |  | 95.5 % of Ctl | 42.7 nM | O=C(NCCOCCOCCNc1nc(Nc2ccc(O)cc2)nc(Nc2ccc(C(=O)NCc3ccccc3)cc2)n1)c1ccccc1 [compound 22]

Row | Inh (% of Ctl) 0.5 μM | Inh (% of Ctl) 5 μM | Inh (% of Ctl) 1 μM | Inh (% of Ctl) 10 μM | IC50 | SMILES
23 | 14.4 % of Ctl | 38.4 % of Ctl |  |  |  | COc1ccc(Nc2nc(NCCOCCOCCNC(=O)c3ccccc3)nc(Nc3ccc(O)cc3)n2)cc1 [compound 23]
24 | 1.7 % of Ctl | 9.2 % of Ctl |  |  |  | O=C(NCCOCCOCCNc1nc(Nc2ccc(O)cc2)nc(Nc2ccc(N3CCOCC3)cc2)n1)c1ccccc1 [compound 24]
25 | 12.9 % of Ctl | 27.7 % of Ctl |  |  |  | Nc1ccc(Nc2nc(NCCOCCOCCNC(=O)c3ccccc3)nc(Nc3ccc(O)cc3)n2)cc1 [compound 25]
26 | 2.6 % of Ctl | 35.2 % of Ctl |  |  |  | O=C(NCCOCCOCCNc1nc(Nc2ccc(O)cc2)nc(Nc2ccc(CO)cc2)n1)c1ccccc1 [compound 26]
27 | 28.2 % of Ctl | 53.8 % of Ctl |  |  |  | O=C(NCCOCCOCCNc1nc(Nc2ccc(O)cc2)nc(NC2CCCCC2)n1)c1ccccc1 [compound 27]
28 | 2.4 % of Ctl | 56.5 % of Ctl |  |  |  | O=C(NCCOCCOCCNc1nc(Nc2ccc(O)cc2)nc(Nc2ccc(O)cc2)n1)c1ccccc1 [compound 28]
29 |  |  | 15.9 % of Ctl | 49.6 % of Ctl |  | O=C(NCCOCCOCCNc1nc(Nc2ccccc2)nc(Nc2ccc(O)cc2)n1)c1ccncc1 [compound 29]
30 |  |  | 26.1 % of Ctl | 78.25 % of Ctl |  | O=C(NCCOCCOCCNc1nc(Nc2ccccc2)nc(Nc2ccc(O)cc2)n1)c1ccc(F)cc1 [compound 30]
31 |  |  | 12.2 % of Ctl | 69.2 % of Ctl |  | O=C(NCCOCCOCCNc1nc(Nc2ccccc2)nc(Nc2ccc(O)cc2)n1)c1ccc(Br)cc1 [compound 31]
32 |  |  | 29.0 % of Ctl | 71.0 % of Ctl |  | COc1ccc(C(=O)NCCOCCOCCNc2nc(Nc3ccccc3)nc(Nc3ccc(O)cc3)n2)cc1 [compound 32]
33 |  |  | 13.2 % of Ctl | 54.6 % of Ctl |  | O=C(NCCOCCOCCNc1nc(Nc2ccccc2)nc(Nc2ccc(O)cc2)n1)c1cccnc1 [compound 33]
34 |  |  | 25.8 % of Ctl | 81 % of Ctl |  | O=C(NCCOCCOCCNc1nc(Nc2ccccc2)nc(Nc2ccc(O)cc2)n1)c1cccc(F)c1 [compound 34]
35 |  |  | 20.4 % of Ctl | 75.6 % of Ctl |  | O=C(NCCOCCOCCNc1nc(Nc2ccccc2)nc(Nc2ccc(O)cc2)n1)c1cc(F)cc(F)c1 [compound 35]
36 |  |  | 30.3 % of Ctl | 81.1 % of Ctl |  | O=C(NCCOCCOCCNc1nc(Nc2ccccc2)nc(Nc2ccc(O)cc2)n1)c1cccc(Br)c1 [compound 36]
37 |  |  | 32.4 % of Ctl | 79.0 % of Ctl |  | COc1cccc(C(=O)NCCOCCOCCNc2nc(Nc3ccccc3)nc(Nc3ccc(O)cc3)n2)c1 [compound 37]
38 |  |  | 22.8 % of Ctl | 63.0 % of Ctl |  | O=S(=O)(NCCOCCOCCNc1nc(Nc2ccccc2)nc(Nc2ccc(O)cc2)n1)c1ccccc1 [compound 38]
39 |  |  | 42.9 % of Ctl | 86.2 % of Ctl |  | O=C(NCCOCCOCCNc1nc(Nc2ccccc2)nc(Nc2ccc(O)cc2)n1)c1cccs1 [compound 39]
40 |  |  | 16.3 % of Ctl | 46.9 % of Ctl |  | O=C(NCCOCCOCCNc1nc(Nc2ccccc2)nc(Nc2ccc(O)cc2)n1)c1ccc(-c2ccccc2)cc1 [compound 40]
41 |  |  | 0.3 % of Ctl | 6.6 % of Ctl |  | CC(=O)NCCOCCOCCNc1nc(Nc2ccccc2)nc(Nc2ccc(O)cc2)n1 [compound 41]
42 |  |  | 22.8 % of Ctl | 57.6 % of Ctl |  | O=C(NCCOCCOCCNc1nc(Nc2ccccc2)nc(Nc2ccc(O)cc2)n1)Nc1ccccc1 [compound 42]
43 |  |  | 34.8 % of Ctl | 84.1 % of Ctl | 1300 nM | COC(=O)CCCCCCNC(=O)c1ccc(Nc2nc(NCCOCCOCCNC(=O)c3ccccc3)nc(Nc3ccc(O)cc3)n2)cc1 [compound 43]
44 |  |  | 65.0 % of Ctl | 77.5 % of Ctl | 760 nM | CCCCCCNC(=O)c1ccc(Nc2nc(NCCOCCOCCNC(=O)c3ccccc3)nc(Nc3ccc(O)cc3)n2)cc1 [compound 44]

From patent US8952150B2, “Prostaglandin transporter inhibitors and uses thereof” (Albert Einstein College of Medicine of Yeshiva University, priority 2009, dated 2015)
